Results on eleven compounds are retold here after patent US6630135B1, “Use of sustained release antibiotic compositions in ophthalmic surgical procedures” (Alcon Laboratories, Inc., priority 1993, dated 2003).

Data set [1] concerns Pseudomonas aeruginosa (i.e., Strain 4N3422). As to the kind of experiment: Minimum inhibitory concentration against Pseudomonas aeruginosa Strain 4N3422. Type of data set: cell-based. The source says:
The concentration of antibiotic utilized in the compositions of the present invention will vary depending on the intended use of the compositions (i.e., sterilization of the surgical field or prevention of post-surgical infections), and the relative antimicrobial activity of the specific antibiotic selected. The antimicrobial activity of antibiotics is generally expressed as the minimum concentration required to inhibit the growth of a specified pathogen. The concentration is also referred to as the “minimum inhibitory concentration” or “MIC”. The term “MIC90” refers to the minimum concentration of antibiotic required to inhibit the growth of ninety percent (90%) of a population of multiple strains of a microorganism. The concentration of an antibiotic required to totally kill a specified population of bacteria or other pathogens is referred to as the “minimum bactericidal concentration” or “MBC”. The minimum inhibitory concentrations of some of the preferred antibiotics of the present invention, relative to a specific strain of Pseudomonas aeruginosa (i.e., Strain 4N3422), are presented in the following table: […]

A further data set has as its system Staph. aureus. Put plainly: MIC90 against multiple strains of Staph. aureus. The data set is classed as cell-based. The source says: (§1) The concentration of antibiotic utilized in the compositions of the present invention will vary depending on the intended use of the compositions (i.e., sterilization of the surgical field or prevention of post-surgical infections), and the relative antimicrobial activity of the specific antibiotic selected. The antimicrobial activity of antibiotics is generally expressed as the minimum concentration required to inhibit the growth of a specified pathogen. The concentration is also referred to as the “minimum inhibitory concentration” or “MIC”. The term “MIC90” refers to the minimum concentration of antibiotic required to inhibit the growth of ninety percent (90%) of a population of multiple strains of a microorganism. The concentration of an antibiotic required to totally kill a specified population of bacteria or other pathogens is referred to as the “minimum bactericidal concentration” or “MBC”. The activity of antibiotics against Pseudomonas aeruginosa is particularly important in the present invention, because ophthalmic infections involving Pseudomonas aeruginosa represent an extremely serious condition which may ultimately result in the loss of the affected eye.

The test system of a further data set is Staph. epidermidis. As to the kind of experiment: MIC90 against Staph. epidermidis. The data set is classed as cell-based.
Description: as §1

Another data set concerns Hemo. influenzae. Put plainly: MIC90 against Hemo. influenzae. The data set is classed as cell-based.
Description: as §1

Another data set has as its system Strep. pneumoniae. Put plainly: MIC90 against Strep. pneumoniae. The data set is classed as cell-based.
Description: as §1

Another data set concerns P. aeruginosa. Put plainly: MIC90 against multiple strains of P. aeruginosa. Type of data set: cell-based.
Description: as §1

Data set [2] is described as follows: Ocular tissue drug concentration after topical dosing of rabbit eyes (HPLC). To be noted: New Zealand albino, 30 microliters, normal eyes, after 30 minutes. Type of data set: in vivo. The procedure:
The following formulations were tested: The route of administration was topical. The rabbits received 30 microliters of either the gel or solution formulations in both eyes. At the end of the study, the aqueous humor and cornea were collected and assayed by high performance liquid chromatography to determine the amount of drug present.

The conditions of data set [3]: humans, one hour after administration, cited from earlier work.
For data set [4] the following is noted: rabbits, subconjunctival injection; cited from earlier work.
[5] abbreviates: Staphylococcus aureus, read-out: MIC 90.
Where [6] appears, read: Staphylococcus epidermidis, read-out: MIC 90.
Where [7] appears, read: Haemophilus influenzae, read-out: MIC 90.
Where [8] appears, read: Streptococcus pneumoniae, read-out: MIC 90.
[9] abbreviates: Pseudomonas aeruginosa, read-out: MIC 90.

In brackets after ≈: the same amount, converted by molar mass. Read-outs that look alike come from different tables or passages of the source. Bounds are passed on as bounds.

What is called MIC is the lowest concentration found to suppress growth.

Consider `NCC[C@H](O)C(=O)N[C@@H]1C[C@H](N)[C@@H](O[C@H]2O[C@H](CN)[C@@H](O)[C@H](O)[C@H]2O)[C@H](O)[C@H]1O[C@H]1O[C@H](CO)[C@@H](O)[C@H](N)[C@H]1O` [Amikacin], for which the MIC in data set [1] (read-out: MIC) was 8 µg/mL (≈ 13.7 µM).
On the same count and under the same terms, then `CO/N=C(\C(=O)N[C@@H]1C(=O)N2C(C(=O)O)=C(COC(C)=O)CS[C@H]12)c1csc(N)n1` [Cefotaxime], with 32 µg/mL (≈ 70.3 µM); and `CO[C@@]1(NC(=O)Cc2cccs2)C(=O)N2C(C(=O)O)=C(COC(N)=O)CS[C@@H]21` [Cefoxitin], with greater than 32 µg/mL.
Regarding `CC(C)(O/N=C(\C(=O)N[C@@H]1C(=O)N2C(C(=O)[O-])=C(C[n+]3ccccc3)CS[C@H]12)c1csc(N)n1)C(=O)O` [Ceftazidime], in [1] (read-out: MIC), the MIC amounted to 1 µg/mL (≈ 1.83 µM).
Regarding `O=C(O)c1cn(C2CC2)c2cc(N3CCNCC3)c(F)cc2c1=O` [Ciprofloxacin], the minimal inhibitory concentration (MIC) in [1] (read-out: MIC) is less than 0.125 µg/mL. Also, the MIC90 with Staph. aureus (setting [5]) was found to be 0.5 µg/mL (≈ 1.51 µM); in the data set with Staph. epidermidis (setting [6]) it was 0.4 µg/mL (≈ 1.21 µM); in the data set with Hemo. influenzae (setting [7]), 0.015 µg/mL (≈ 0.0453 µM); with Strep. pneumoniae (setting [8]), 2 µg/mL (≈ 6.04 µM); with P. aeruginosa (setting [9]) it was 0.5 µg/mL (≈ 1.51 µM). Further, the concentration at 30 min stood at 280 ng/g in data set [2] (aqueous humor, read-out: drug levels in aqueous humor) and 10600 ng/g in data set [2] (cornea, read-out: drug levels in cornea). Further, the “maximum aqueous humor concentration” value in data set [3] (IV injection (200 mg)) was 0.16 µg/mL; in data set [3] (oral dosage (1 g)) it was 0.33 µg/mL.
As to `C[C@@H](O)[C@H]1C(=O)N2C(C(=O)O)=C(SCCN=CN)C[C@H]12` [Imipenem], the MIC in [1] (read-out: MIC) is 1 µg/mL (≈ 3.34 µM).
As for `CCn1cc(C(=O)O)c(=O)c2cc(F)c(N3CCNCC3)cc21` [Norfloxacin], in data set [1] (read-out: MIC), the minimum inhibitory concentration (MIC) is less than 0.5 µg/mL.
Same read-out and setting: the value for `CCN1CCN(C(=O)N[C@@H](C(=O)N[C@@H]2C(=O)N3[C@@H]2SC(C)(C)[C@@H]3C(=O)O)c2ccccc2)C(=O)C1=O` [Piperacillin] was less than 8 µg/mL.
In the case of `CC1(C)S[C@@H]2[C@H](NC(=O)[C@H](C(=O)O)c3ccsc3)C(=O)N2[C@H]1C(=O)O` [Ticarcillin], in data set [1] (read-out: MIC), the MIC came to 32 µg/mL (≈ 83.2 µM).
Regarding `NC[C@H]1O[C@H](O[C@H]2[C@H](O)[C@@H](O[C@H]3O[C@H](CO)[C@@H](O)[C@H](N)[C@H]3O)[C@H](N)C[C@@H]2N)[C@H](N)C[C@@H]1O` [Tobramycin], the minimal inhibitory concentration (MIC) in data set [1] (read-out: MIC) is greater than 8 µg/mL. Further, the MIC90 with Staph. aureus (setting [5]) came out at 6.3 µg/mL (≈ 13.5 µM); with Staph. epidermidis (setting [6]), 56 µg/mL (≈ 120 µM); in the data set with Hemo. influenzae (setting [7]) it was 13.4 µg/mL (≈ 28.7 µM); with Strep. pneumoniae (setting [8]), 34.5 µg/mL (≈ 73.8 µM); in the data set on P. aeruginosa (setting [9]), 20 µg/mL (≈ 42.8 µM).
In the case of Gentamicin, the MIC in data set [1] is greater than 8 µg/mL. Further, the “MIC90” value is 12.5 µg/mL in the data set on Staph. aureus; 12.5 µg/mL against Staph. epidermidis; 0.8 µg/mL against Hemo. influenzae; 50.0 µg/mL against Strep. pneumoniae; 8.0 µg/mL against P. aeruginosa. Also, the “maximum concentration attained in the aqueous humor” value in data set [4] is 8.8 µg/g.
